Experiment [1] has as its target T1, Type-1 angiotensin II receptor (Oryctolagus cuniculus, UniProt P34976).
T1 sequence (P34976 whole entry): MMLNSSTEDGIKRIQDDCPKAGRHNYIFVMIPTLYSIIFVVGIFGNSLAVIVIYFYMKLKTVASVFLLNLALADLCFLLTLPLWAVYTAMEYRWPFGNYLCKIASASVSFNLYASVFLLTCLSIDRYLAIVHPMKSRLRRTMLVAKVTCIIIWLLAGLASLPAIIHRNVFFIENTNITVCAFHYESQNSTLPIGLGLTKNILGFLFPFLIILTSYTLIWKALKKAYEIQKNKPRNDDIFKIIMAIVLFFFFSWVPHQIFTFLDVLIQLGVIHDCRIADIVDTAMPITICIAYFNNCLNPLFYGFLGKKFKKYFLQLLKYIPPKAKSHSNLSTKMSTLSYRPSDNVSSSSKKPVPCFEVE
Briefly: In vitro binding affinity determined by its ability to displace the specific binding ligand [125I]-Sar1, Ile8-AII from Angiotensin II receptor, type 1 in rabbit aorta membranes. It is filed as cell membranes, Membrane.

The target of experiment [2] is T2, Type-2 angiotensin II receptor (Rattus norvegicus, UniProt P35351).
T2 sequence (P35351 whole entry): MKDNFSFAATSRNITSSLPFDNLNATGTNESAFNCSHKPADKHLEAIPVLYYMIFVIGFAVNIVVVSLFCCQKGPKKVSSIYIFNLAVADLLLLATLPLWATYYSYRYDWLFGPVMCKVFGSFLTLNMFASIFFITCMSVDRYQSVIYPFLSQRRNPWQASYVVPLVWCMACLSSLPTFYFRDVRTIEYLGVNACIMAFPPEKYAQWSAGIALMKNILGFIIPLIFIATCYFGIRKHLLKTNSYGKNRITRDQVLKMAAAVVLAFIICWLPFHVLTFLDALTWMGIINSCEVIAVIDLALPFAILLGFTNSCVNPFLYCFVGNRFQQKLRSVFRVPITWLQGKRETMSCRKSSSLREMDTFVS
The experiment is described as follows: In vitro binding affinity determined by its ability to displace the specific binding ligand [125I]-Sar1, Ile8-AII from AT2 receptor in rat midbrain membranes. Type of experiment: cell membranes, Membrane.

In experiment [3] the target is Angiotensin II receptor (Homo sapiens) (UniProt P30556+P50052). Briefly: Ratio of IC50 of AT2/AT1 receptors. Type of experiment: protein assay.
Experiment [4] deals with Rattus norvegicus. Briefly: Effective dose in rat after peroral administration; Range is (0.25 - 0.31). It is filed as functional. As to conditions: po.
For experiment [5], the system named is Rattus norvegicus. Briefly: Inhibitory activity against AII-induced pressor responses in rats at a dose of 0.3 upon po administration at duration of >6 hr. Type of experiment: functional.
For experiment [6], the system named is Canis familiaris. The experiment is described as follows: Effective dose in Beagle dog after peroral administration; Range is (0.52 - 0.64). It is filed as functional. The conditions noted are these: Canis lupus familiaris, po.
Experiment [7] deals with Canis familiaris. Briefly: Inhibitory activity against AII-induced pressor responses in Beagle dogs at a dose of 1.0 upon po administration at duration of >6 hr. Type of experiment: functional, Canis lupus familiaris.
Experiment [8] relates to Rattus norvegicus. The experiment is described as follows: Effective dose in rat after intravenous administration; Range is (0.12 - 0.15). Type of experiment: functional.
Experiment [9] concerns Canis familiaris. The experiment is described as follows: Effective dose in Beagle dog after intravenous administration; Range is (0.025 - 0.029). It is filed as functional. As to conditions: Canis lupus familiaris.
Experiment [10] deals with Rattus norvegicus. Briefly: Inhibitory activity against AII-induced pressor responses in rats at a dose of 0.3 upon iv administration at duration of >6 hr. It is filed as functional.
Experiment [11] deals with Canis familiaris. The experiment is described as follows: Inhibitory activity against AII-induced pressor responses in Beagle dogs at a dose of 0.3 upon iv administration at duration of >6 hr. Type of experiment: functional, Canis lupus familiaris.
For experiment [12], the system named is Rattus norvegicus. Briefly: Inhibition on AII-induced pressor responses in rats at a dose of 0.3 upon iv administration at duration of >6 hr. It is filed as functional.
The test system of experiment [13] is Rattus norvegicus. Briefly: Inhibition on AII-induced pressor responses in rats at a dose of 0.3 upon po administration at duration of >6 hr. Type of experiment: functional.
Experiment [14] concerns Rattus norvegicus. The experiment is described as follows: Effective dose in rat after intravenous administration; Range is (0.062 - 0.076). Type of experiment: functional.
Experiment [15] has as its system Rattus norvegicus. Briefly: Effective dose in rat after peroral administration; Range is (0.001 - 0.167). The conditions noted are these: po. It is filed as functional.
Experiment [16] concerns Canis familiaris. The experiment is described as follows: Inhibition on AII-induced pressor responses in Beagle dogs at a dose of 0.3 upon iv administration at duration of >6 hr. It is filed as functional, Canis lupus familiaris.

The record followed here is ChEMBL document CHEMBL1153653, “Imidazo[4,5-b]pyridine-based AT1 / AT2 angiotensin II receptor antagonists” (Bioorg Med Chem Lett, 1994).

One may read the IC50 as the concentration that inhibits the measured activity by half. For orientation: ED50 means the dose that gives a 50% effect, or the effect in half of the subjects.

As for `CCCCCN(C(=O)c1ccccc1)c1ccc2nc(CCC)n(Cc3ccc(-c4ccccc4-c4nn[nH]n4)cc3)c(=O)c2c1`, the IC50 in experiment [1] was determined as 1 nM.
As to `CCCCC(=O)Nc1cc2nc(CCCC)n(Cc3ccc(-c4ccccc4S(=O)(=O)NC(=O)CCC4CCCC4)cc3)c2nc1C`, the values for the IC50 in experiment [1] and in [2] were 0.1 nM and 0.31 nM, respectively.
With `CCc1nc2c(C)cc(C)nc2n1Cc1ccc(-c2ccccc2S(=O)(=O)NC(=O)CCC2CCCC2)cc1`, the half-maximal inhibitory concentration (IC50) was found to be 0.1 nM in experiment [1] and 33 nM in experiment [2].
Regarding `CCc1nc2c(C)cc(C)nc2n1Cc1ccc(-c2ccccc2-c2nnn[nH]2)cc1` [L-158809], the IC50 in experiment [2] was above 10000 nM.
In the case of `CCCC(=O)Nc1cnc2c(nc(CCC)n2Cc2ccc(-c3ccccc3S(=O)(=O)NC(=O)OCc3ccccc3)cc2)c1C`, the Ratio in experiment [3] was determined as 2.8. The ED50 in [4] was 0.28 mg/kg; in [6], 0.58 mg/kg; in experiment [8], 0.13 mg/kg; in experiment [9], 0.027 mg/kg. Moreover, the IC50 is 0.33 nM in experiment [1] and 0.94 nM in experiment [2]. Also, the Max inhibition in experiment [5] worked out at 58%; in [7], 76%; in experiment [10], 85%; in [11] it was 100%.
Regarding `CCCCOC(=O)NS(=O)(=O)c1ccccc1-c1ccc(Cn2c(CCCC)nc3cc(NC(=O)CCCC)c(C)nc32)cc1`, the Max inhibition is reported as 82% in experiment [12], 86% in [13] and 100% in experiment [16]. Moreover, the results for the ED50 in experiment [14] and in [15] were 0.069 mg/kg and 0.014 mg/kg, respectively.
For the compound `CCCCCC(=O)NS(=O)(=O)c1ccccc1-c1ccc(Cn2c(CCCC)nc3cc(NC(=O)CCCC)cnc32)cc1`, the IC50 came to 0.37 nM in experiment [1] and 2.7 nM in experiment [2].
For the compound `CCCCOC(=O)NS(=O)(=O)c1ccccc1-c1ccc(Cn2c(CCC)nc3c(C)c(NC(=O)CCC)cnc32)cc1`, the IC50 in experiment [1] came out at 0.51 nM; in experiment [2], 5.6 nM.
Consider `CCCC(=O)Nc1c(C)nc2c(nc(CCC)n2Cc2ccc(-c3ccccc3S(=O)(=O)NC(=O)CCC3CCCC3)cc2)c1C`, for which the IC50 worked out at 0.26 nM in experiment [1] and 0.25 nM in experiment [2].
As to `CCCCc1nc2cc(NC(=O)N(c3ccccc3)c3ccccc3)c(C)nc2n1Cc1ccc(-c2ccccc2-c2nn[nH]n2)cc1`, the IC50 in [1] was 0.6 nM; in experiment [2], 510 nM.
